Measured values reported in PubChem BioAssay AID2060910 (Molecular Pharmacology Branch, DTP, NCI, 2025).
Several values for one entry are separate records, joined by “and”; a condition that tells them apart may be missing. Equal entries are not always repeated.

Test system: 242566-281-R-J2-PDC complex spheroid viability
Assay: Anticancer human tumor 242566-281-R-J2-PDC patient-derived pancreatic carcinoma cell line growth inhibition [RAS]
Details: for viability, T/C: stronger effect = lower value
Source text: RAS pathway inhibitors in Combinations in Complex Spheroids
A high-throughput screen of multi-cell type tumor spheroids was designed to identify active combinations of RAS pathway inhibitors and targeted small molecules. Complex spheroids include a stromal component modeled by human endothelial cells (HUVEC) and fibroblasts modeled by human mesenchymal stem cells (MSCs). The concentration ranges selected for each drug and investigational agent were based upon clinically achievable concentrations if the clinical Cmax of the agent was known.
Compounds. The drugs and investigational agents: abemaciclib (NSC768073), cobimetinib (NSC768068), divarasib (GDC6063, NSC841802), docetaxel (NSC628503), GDC-1971 (RLY-1971, NSC841576), gemcitabine (NSC613327), inavolisib (NSC800729), ipatasertib (NSC767898), KB-0742 (NSC834161), MRTX-1133 (NSC836407), osimertinib (NSC779217), RMC-4630 (NSC839698), RMC-6236 (NSC851965), RMC-6291 (NSC852671), Ro-3306 (NSC812927), sapanisertib (NSC764658), SN-38 (NSC673596), staurosporine (NSC755774), SY5609 (NSC837396), and tovorafenib (DAY101, NSC766906), were obtained from the National Cancer Institute (NCI) Developmental Therapeutics Program Chemical Repository. The FDA-approved anticancer drug set is available from the NCI Developmental Therapeutics Program. […] The stock solutions were prepared in dimethyl sulfoxide (DMSO, Sigma-Aldrich, St. Louis, MO, cat. D2650) at 800-fold the tested concentration and stored at -70 degrees C prior to their use. All drugs and investigational agents were tested over a range starting from a high concentration at or near the clinical Cmax and decreasing in half-log increments. If the clinical Cmax for an agent had not been determined, the highest concentration tested was 10 microM.
Cell Culture. All cells were maintained in an incubator at 37 degrees C and 5% CO2 with 95% humidity. The PDC lines were cultured according to standard operating procedures established by the NCI PDMR. All PDCs were thawed and cultured in Matrigel-coated flasks prepared with a working solution of 1X Ham's F-12 nutrient mix, without supplementation (Invitrogen, Waltham, MA, cat. 11765054), 100 U/mL penicillin-streptomycin (Invitrogen, cat. 15140122), and 2.5% Matrigel (Corning Inc., Corning, NY, cat. 354248) for the first three passages. The 362531-283-R-J2-PDC and 782815-120-R-J1-PDC lines were cultured in 6C/Colon 1B media, which includes advanced DMEM/F-12 (Thermo Fisher Scientific, cat. 12634028), 10 mM HEPES (Thermo Fisher Scientific, cat. 15630080), 1X GlutaMAX supplement (Thermo Fisher Scientific, cat. 35050061), 0.1 mg/mL primocin (InvivoGen, San Diego, CA, cat. ant-pm-2), 10% defined fetal bovine serum, heat inactivated (HyClone Laboratories Inc., Logan, UT, cat. SH30070.03HI), 50% L-WRN conditioned media (ATCC, cat. CRL-3276), 1.25 mM N-Acetyl-L-cysteine (Sigma-Aldrich, cat. A9165), 10 mM nicotinamide (Sigma-Aldrich, cat. N0636), 1X B-27 supplement (Thermo Fisher Scientific, cat. 17504044), 1X N-2 supplement (Thermo Fisher Scientific, cat. 17502048), 50 ng/mL human EGF (Thermo Fisher Scientific, cat. PHG0311), and 10 microM Y-27632 dihydrochloride (Tocris Bioscience, cat. 1254). The K12877-001-R-J1-PDC line was cultured in 6I media, which includes all 6C/Colon 1B media plus 10 ng/mL human FGF-10 (PeproTech, cat. 100-26), 1 ng/mL human FGF-2 (PeproTech, cat. 100-18B), 1 µM prostaglandin E2 (Tocris Bioscience, cat. 2296), […] hydrocortisone (Sigma-Aldrich, cat. H4001), and […] bovine insulin (Sigma-Aldrich, cat. I6634). The K86415-001-R-J1-PDC line was cultured in 6D media, which includes all 6C/Colon 1B media components minus the L-WRN conditioned media. The 485176-168-R4-J1-PDC was cultured in PANC media, which includes all 6C/Colon 1B media plus 100 ng/mL human FGF-10 (PeproTech, cat. 100-26), 500 nM SB-431542 (Selleckchem, cat. S1067), and 10 nM gastrin (Tocris Bioscience, cat. 3006). […]

[1] = compound alone, run of 07/09/2024
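Also: spheroids exposed to compound for 7 days before readout.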
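For viability, T/C in this document: 100% = DMSO vehicle control wells.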

| IC50 (curve of compound) | SMILES | viability, T/C (compound 0.0316 µM) | viability, T/C (compound 0.1 µM) | viability, T/C (compound 0.316 µM) | viability, T/C (compound 1 µM) | further results |
| --- | --- | --- | --- | --- | --- | --- |
| > 1 µM | C=CC(=O)N1CCN(c2nc(OCC3CCCN3C)nc3c(F)c(-c4nc(N)cc(C)c4C(F)(F)F)c(Cl)cc23)C(C)C1 (stereo not drawn) | 99.2% [middle of 12 runs] | 100% [middle of 12 runs] | – | – | viability, T/C (compound 0.00316 µM): 102% [middle of 12 runs]; IC50 (compound alone, run of 07/15/2024): > 1 µM |
| > 10 µM | CC(C)NCC(C(=O)N1CCN(c2ncnc3c2C(C)CC3O)CC1)c1ccc(Cl)cc1 (stereo not drawn) | 104% [middle of 4 runs] | 106% [middle of 4 runs] | 103% [middle of 4 runs] | 101% [middle of 4 runs] | – |
| > 1 µM | CCN1CCN(Cc2ccc(Nc3ncc(F)c(-c4cc(F)c5nc(C)n(C(C)C)c5c4)n3)nc2)CC1 | 102% [middle of 4 runs] | 99.1% [middle of 4 runs] | – | – | viability, T/C (compound 0.00316 µM): 102% [middle of 4 runs] |
| > 10 µM | Cc1nc(N2CCC3(CC2)COC(C)C3N)c(CO)nc1Sc1ccnc(N)c1Cl (stereo not drawn) | 119% and 98.2% and 102% (2×) | – | 94.2% [middle of 4 runs] | 85.4% [middle of 4 runs] | – |
| > 10 µM and 3.3 µM and 3.4 µM | NC1c2ccccc2OC12CCN(c1cnc3c(N4CCCc5ncccc54)n[nH]c3n1)CC2 (stereo not drawn) | – | – | – | 68.9% [middle of 4 runs] | viability, T/C (compound 10 µM): 51.8% [middle of 4 runs] |

More lines, now with the values behind:

| SMILES | IC50 (curve of compound) | viability, T/C (compound 0.0316 µM) | viability, T/C (compound 0.1 µM) | viability, T/C (compound 0.316 µM) | viability, T/C (compound 1 µM) | further results |
| --- | --- | --- | --- | --- | --- | --- |
| C#Cc1c(F)ccc2cc(O)cc(-c3ncc4c(N5CC6CCC(C5)N6)nc(OCC56CCCN5CC(F)C6)nc4c3F)c12 (stereo not drawn) | – | 84.1% [middle of 8 runs] | 80.2% [middle of 8 runs] | 71.4% [middle of 8 runs] | – | viability, T/C (compound 3.16 µM): 53.9% [middle of 8 runs]; viability, T/C (compound 10 µM): 49.6% [middle of 8 runs] |
| C=CC(=O)Nc1cc(Nc2nccc(-c3cn(C)c4ccccc34)n2)c(OC)cc1N(C)CCN(C)C | > 1 µM | 90.5% [middle of 4 runs] | 91.2% [middle of 4 runs] | – | – | viability, T/C (compound 0.00316 µM): 105% [middle of 4 runs]; viability, T/C (compound 0.01 µM): 101% [middle of 4 runs] |
| CC(=O)OC12COC1CC(O)C1(C)C(=O)C(O)C3=C(C)C(OC(=O)C(O)C(NC(=O)OC(C)(C)C)c4ccccc4)CC(O)(C(OC(=O)c4ccccc4)C21)C3(C)C (stereo not drawn) | – | 54.6% [middle of 4 runs] | – | 47.6% [middle of 4 runs] | 43.5% [middle of 4 runs] | viability, T/C (compound 3.16 µM): 51.3% [middle of 4 runs] |
| CC(C)n1nc(-c2ccc3oc(N)nc3c2)c2c(N)ncnc21 | 0.0509 µM and > 0.1 µM and 0.0525 µM | 63.6% [middle of 4 runs] | 60.3% [middle of 4 runs] | – | – | viability, T/C (compound 0.000316 µM): 104% [middle of 4 runs]; viability, T/C (compound 0.001 µM): 102% [middle of 4 runs]; viability, T/C (compound 0.01 µM): 85.6% [middle of 4 runs] |
| CC(Nc1ccc2c(c1)OCCn1cc(N3C(=O)OCC3C(F)F)nc1-2)C(N)=O (stereo not drawn) | 1.41 µM [middle of 4 runs] | 99.1% [middle of 4 runs] | 99.7% [middle of 4 runs] | – | 57.4% [middle of 4 runs] | viability, T/C (compound 3.16 µM): 37.6% [middle of 4 runs]; viability, T/C (compound 10 µM): 28.8% [middle of 4 runs] |
| CC1(C)CCC(Nc2ncc(C(F)(F)F)c(-c3c[nH]c4c(P(C)(C)=O)c(C#N)ccc34)n2)CN1 (stereo not drawn) | > 0.3 µM | – | – | – | – | viability, T/C (compound 0.03 µM): 110% [middle of 4 runs] |
| CC1(O)CCCC1n1c(=O)c(C(F)F)cc2cnc(NC3CCN(S(C)(=O)=O)CC3)nc21 (stereo not drawn) | > 10 µM and 7.54 µM and 8.69 µM | – | – | – | 106% [middle of 4 runs] | viability, T/C (compound 3.16 µM): 105% and 103% (2×) and 123% |
| CCC(CC)c1cc(NC2CCC(N)C2)n2nccc2n1 (stereo not drawn) | 4.51 µM [middle of 4 runs] | 105% [middle of 4 runs] | 119% [middle of 4 runs] | 105% [middle of 4 runs] | 114% [middle of 4 runs] | viability, T/C (compound 10 µM): 2.75% [middle of 4 runs] |
| CCc1c2c(nc3ccc(O)cc13)-c1cc3c(c(=O)n1C2)COC(=O)[C@]3(O)CC | 30.9 nM [middle of 4 runs] | – | – | – | – | viability, T/C (compound 0.003 µM): 97% [middle of 4 runs]; viability, T/C (compound 0.00949 µM): 76% [middle of 4 runs]; viability, T/C (compound 0.03 µM): 49% [middle of 4 runs]; viability, T/C (compound 0.0949 µM): 24.7% [middle of 4 runs]; viability, T/C (compound 0.3 µM): 12.9% [middle of 4 runs] |
| CCn1c(-c2cc(N3CCN(C)CC3)cnc2C(C)OC)c2c3cc(ccc31)-c1csc(n1)CC(NC(=O)C1CC1C)C(=O)N1CCCC(N1)C(=O)OCC(C)(C)C2 (stereo not drawn) | – | – | – | – | – | viability, T/C (compound 0.000949 µM): 93.7% [middle of 8 runs]; viability, T/C (compound 0.003 µM): 76.4% [middle of 8 runs]; viability, T/C (compound 0.00949 µM): 49% [middle of 8 runs]; viability, T/C (compound 0.03 µM): 31.3% [middle of 8 runs]; viability, T/C (compound 0.0949 µM): 23.8% [middle of 8 runs]; viability, T/C (compound 0.3 µM): 21.6% [middle of 8 runs]; IC50 [1]: 9.34 nM [middle of 8 runs] |
| CCn1c(-c2cccnc2C(C)OC)c2c3cc(ccc31)N1CCOC(CC(NC(=O)C(C(C)C)N(C)C(=O)C3(F)CCN(C(=O)C#CC(C)(C)N(C)C)CC3)C(=O)N3CCCC(N3)C(=O)OCC(C)(C)C2)C1 (stereo not drawn) | – | – | – | – | – | viability, T/C (compound 0.000949 µM): 93.4% [middle of 8 runs]; viability, T/C (compound 0.003 µM): 108% [middle of 8 runs]; viability, T/C (compound 0.00949 µM): 104% [middle of 8 runs]; viability, T/C (compound 0.03 µM): 109% [middle of 8 runs]; viability, T/C (compound 0.0949 µM): 98.3% [middle of 8 runs]; viability, T/C (compound 0.3 µM): 87.6% [middle of 8 runs]; IC50 [1]: > 0.3 µM |
| C[C@@H](NC(=O)c1ncnc(N)c1Cl)c1ncc(C(=O)Nc2cc(C(F)(F)F)c(Cl)cn2)s1 | > 10 µM | 116% [middle of 4 runs] | 114% [middle of 4 runs] | 110% [middle of 4 runs] | 118% [middle of 4 runs] | viability, T/C (compound 3.16 µM): 106% [middle of 4 runs] |
| Nc1ccn(C2OC(CO)C(O)C2(F)F)c(=O)n1 (stereo not drawn) | 89.6 nM [middle of 4 runs] | 74.9% [middle of 4 runs] | 49.9% [middle of 4 runs] | 23.4% [middle of 4 runs] | 15.6% [middle of 4 runs] | viability, T/C (compound 0.00316 µM): 102% [middle of 4 runs]; viability, T/C (compound 0.01 µM): 103% [middle of 4 runs] |
| O=C(c1ccc(F)c(F)c1Nc1ccc(I)cc1F)N1CC(O)([C@@H]2CCCCN2)C1 | – | – | 64.1% [middle of 4 runs] | 41.3% [middle of 4 runs] | – | – |
